# Assay results taken from publication PMC8273696, “Colombian Scorpion Centruroides margaritatus: Purification and Characterization of a Gamma Potassium Toxin with Full-Block Activity on the hERG1 Channel” (Toxins, 2021).
# “Also recorded” adds a separate entry of the source. Like-named read-outs stand apart in the source and are kept apart here. Positions of bridges follow the written chain, without caps; N, C: chain ends. No end group written: not given here.
# Assays:
# [1] = test system: Kv1.3 channel; settings: human peripheral T lymphocytes, ref [30] (ref [30],[31]), cited from earlier work
# Excerpt: (§1) Until now, little is known about the C. margaritatus venom composition. […] Thereafter, in a proteomics study of C. margaritatus venom, two other peptides were isolated and characterized: a peptide with 24 amino acids and 3 disulfide bridges (MW = 2609.15 Da) and a peptide with 30 amino acids and 3 disulfide bridges (MW = 3376 Da), both cla ... || Despite the fact that the C. margaritatus scorpion belongs to the Buthidae […], its venom has been considered of low toxicity, but as mentioned above, in Colombia this species has caused a few cases of moderate and severe scorpionism.
# [2] = test system: Kv1.1 channel; settings: affinity compared with Kv1.3; ref [31] (ref [30],[31]); cited from earlier work
# Excerpt: as §1
# [3] = test system: Kv1.2 channel; settings: affinity compared with Kv1.3; ref [31] (ref [30],[31]); cited from earlier work
# Excerpt: as §1
# [4] = test system: ERG potassium channels (hERG1); settings: ref [22],[46]; cited from earlier work
# Excerpt: Scorpion venom is a mixture of proteins, peptides and enzymes, carbohydrates, free amines, nucleotides, lipids, and other low molecular weight components with unknown function. Peptides that act as ion channel modulators are the main agents responsible for the venom toxicity and they have been classified according to their targets into: sodium scorpion toxins (NaScTx), with molecular masses between 6–8 kDa, potassium scorpion toxins (KScTx), with molecular masses between 3–5 kDa, and calcium scorpion toxins (CaScTx) that comprise peptides acting on voltage gated calcium channel ... || The effect of the CmERG1 toxin was evaluated on the hERG1 channel by means of electrophysiology experiments. […] Dose response curves were calculated by application of toxin concentrations from 1 nM to 1 µM. […] This feature is different from the other γKTxs, like CnERG1, ... || Two models were proposed to explain the uncommon feature of the γKTxs that comprises a partial current block, despite the saturation concentration, and the acceleration of the closing process due to the toxin preference for the channel closed state. In one kinetic model proposed by Hill and collaborators, first the toxin binds to the channel in a toxin channel encounter complex permissive to ion flow (TC*) and then passes to the blocked toxin-channel complex (TC). […]
# [5] = target: T1, hERG1 channel (Homo sapiens, UniProt Q12809); assay: Patch-clamp, voltage dependence of (steady state) inactivation of hERG1; type: cell-based; settings: 4 nM, n = 5
# T1 construct: expressed in transfected cells
# T1 sequence (Q12809 whole entry): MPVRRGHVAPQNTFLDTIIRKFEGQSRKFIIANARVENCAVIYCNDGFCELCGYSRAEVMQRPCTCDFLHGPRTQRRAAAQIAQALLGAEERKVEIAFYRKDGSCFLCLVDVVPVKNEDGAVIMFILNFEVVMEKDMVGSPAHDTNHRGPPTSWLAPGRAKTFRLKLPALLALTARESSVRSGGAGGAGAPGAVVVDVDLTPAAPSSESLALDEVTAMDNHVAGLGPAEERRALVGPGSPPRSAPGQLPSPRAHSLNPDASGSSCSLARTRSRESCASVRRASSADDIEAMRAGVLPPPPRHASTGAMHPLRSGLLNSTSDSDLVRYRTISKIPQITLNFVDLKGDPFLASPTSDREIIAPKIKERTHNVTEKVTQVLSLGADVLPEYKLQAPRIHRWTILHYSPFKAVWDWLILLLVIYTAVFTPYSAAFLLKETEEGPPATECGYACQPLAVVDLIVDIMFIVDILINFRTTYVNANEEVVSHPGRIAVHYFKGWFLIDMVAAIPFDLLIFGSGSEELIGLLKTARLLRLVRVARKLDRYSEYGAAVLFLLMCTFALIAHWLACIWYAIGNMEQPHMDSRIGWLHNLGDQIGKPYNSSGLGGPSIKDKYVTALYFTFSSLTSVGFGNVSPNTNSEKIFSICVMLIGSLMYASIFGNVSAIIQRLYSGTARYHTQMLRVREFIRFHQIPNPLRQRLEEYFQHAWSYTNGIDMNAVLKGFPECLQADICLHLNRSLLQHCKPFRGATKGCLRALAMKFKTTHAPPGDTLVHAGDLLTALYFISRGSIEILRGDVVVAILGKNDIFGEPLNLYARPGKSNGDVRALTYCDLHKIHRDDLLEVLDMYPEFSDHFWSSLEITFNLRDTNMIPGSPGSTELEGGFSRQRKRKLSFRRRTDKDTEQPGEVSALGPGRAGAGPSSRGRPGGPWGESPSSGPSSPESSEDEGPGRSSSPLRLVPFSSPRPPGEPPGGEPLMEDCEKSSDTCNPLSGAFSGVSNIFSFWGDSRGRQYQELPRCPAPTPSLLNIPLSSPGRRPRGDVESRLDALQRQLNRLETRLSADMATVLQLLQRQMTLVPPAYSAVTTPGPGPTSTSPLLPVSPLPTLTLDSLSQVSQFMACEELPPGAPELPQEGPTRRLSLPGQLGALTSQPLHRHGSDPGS
# Description: Figure 4 Effect of CmERG1 at 4 nM on the voltage dependence of activation and inactivation. (A) Stimulation protocol used to study the voltage dependence of activation. Tail currents were elicited by 5 s preconditioning steps ranging from +30 to −80 mV, followed by a 500 ms pulse at −120 mV. (B,C) typical example of tail currents recorded in control conditions and during application of CmERG1, respectively. (D) Voltage dependence of activation. Normalized peak currents are plotted against the voltage of the preconditioning pulses in control conditions (black squares) and in the presence of 4 nM CmERG1 (grey squares). Black lines are the best fit obtained to a Boltzmann equation giving V1/2 for activation of −37.5 ± 1.4 mV and −34.8 ± 0.8 mV and slope of 6.0 ± 0.3 and 8 ± 0.7 for the control and in the presence of 4 nM CmERG1, respectively (mean ± SE and n = 5, analyzed by paired sample t-test at 0.05 level). (E) Stimulation used to study the voltage dependence of inactivation. Currents were elicited by a 1 s preconditioning pulse at 40 mV followed by depolarization steps ranging from −170 mV to 40 mV. Currents recorded at potentials lower than −90 mV were corrected for deactivation as shown in the inset of panel (F). The deactivation process was fitted by a single exponential (grey dash line) extrapolated to the zero point of the depolarization step, indicated by the arrow. (F,G) typical example of currents recorded in control conditions and in presence of 4 nM CmERG1 respectively. (H) Voltage dependence of inactivation. […] Black lines are the best fit obtained by a Boltzmann equation giving V1/2 for inactivation of −77.6 ± 3.6 mV and −79 ± 1.3 mV and slope of 28.2 ± 2.2 and 29 ± 1.5 for control conditions and in presence of 4 nM CmERG1, respectively (mean ± SE and n = 5, analyzed by paired sample t-test at 0.05 level).
# For steady state inactivation, tail currents were recorded during 500 ms depolarization steps from −170 to 40 mV, after a depolarization at 40 mV for 1 s (Figure 4E). Figure 4F,G show an example of currents recorded in the absence and in the presence of toxin. […]
# [6] = target: T1, hERG1 channel; assay: Patch-clamp, voltage dependence of activation of hERG1; type: cell-based; settings: 4 nM
# Description: To understand better the activity of CmERG1 on hERG1, we analyzed the voltage dependence of the activation and inactivation processes in presence or absence of CmERG1 at 4 nM, a concentration close to the IC50. For the activation, tail currents were elicited at −120 mV after 5 s preconditioning pulses from 30 to −80 mV (Figure 4A). Figure 4B,C illustrates typical currents recorded in the absence and in the presence of CmERG1. Tail currents were normalized, plotted versus preconditioning potentials, and fitted to a Boltzmann equation (Figure 4D). […]
# Figure 4 Effect of CmERG1 at 4 nM on the voltage dependence of activation and inactivation. […] (B,C) typical example of tail currents recorded in control conditions and during application of CmERG1, respectively. […] Black lines are the best fit obtained to a Boltzmann equation giving V1/2 for activation of −37.5 ± 1.4 mV and −34.8 ± 0.8 mV and slope of 6.0 ± 0.3 and 8 ± 0.7 for the control and in the presence of 4 nM CmERG1, respectively (mean ± SE and n = 5, analyzed by paired sample t-test at 0.05 level). […] Currents recorded at potentials lower than −90 mV were corrected for deactivation as shown in the inset of panel (F). […] (F,G) typical example of currents recorded in control conditions and in presence of 4 nM CmERG1 respectively. […]
# [7] = target: T1, hERG1 channel; assay: Patch-clamp electrophysiology, block of hERG1 tail currents (dose-response) in CHO cells stably expressing hERG1; type: cell-based; settings: for activity on hERG1 channels, in words (venom fraction screening / purified peptide): electrophysiology screening
# Description: CHO cells stably expressing hERG1 potassium channels were used for the electrophysiological experiments (hERG1 accession number: NP_000229). We previously prepared this cell line stably transfecting CHO cells with plasmid pcDNA3.1-hERG1 (a kind gift from Enzo Wanke from University of Milano-Bicocca, Italy). Briefly: CHO cells at 80% confluence in a 35 mm culture plate were transfected with 2 µg of pcDNA3.1-hERG1 mixed with 7 uL of Lipofectamine (Invitrogen), accordingly to the manufacturer instructions. After 3 days, cells were selected by adding to the culture medium 2 mg/mL of G418 (SIGMA). After 10 days of selection, cells were cloned by limiting dilution and the resulting clones were probed for their current expression by electrophysiological recordings. High glucose DMEM (Dulbecco’s Modified Eagle Medium, SIGMA, Naucalpan de Juarez, Edo de Mexico, Mexico), supplemented with 10% Fetal Bovine Serum (Biotecfron, Emiliano Zapata, Morelos, Mexico) and with 500 µg/mL of antibiotic G418 (SIGMA) was used as growth medium. Cells were routinely maintained at 37 °C with 5% of CO2 in humidified atmosphere.
# Intracellular solution contained in mM: 130 K-Aspartate, 10 NaCl, 2 MgCl2, 10 HEPES, 10 EGTA, pH 7.3 adjusted with NaOH. Extracellular solution contained in mM: 95 NaCl, 40 KCl, 2 CaCl2, 2 MgCl2, 10 HEPES, 5 glucose, pH 7.3 adjusted with NaOH. A concentrated 100–1000× stock was prepared dissolving lyophilized toxin in distilled water and stored at −20 °C until the used (no more than 3 weeks). Solutions were delivered to the cell under patch by means of an active perfusion system connected to a variable speed syringe pump (model A-99 from Razel Scientific Instruments (Saint Albans VT, USA)). The perfusion rate was approximately 1µL/s.
# Patch pipettes were manufactured from capillary borosilicate glass tubing (Warner Instruments, Hamden, CT, USA) by means of a vertical puller model P-30 (Sutter Instrument, Novato, CA, USA). When pipettes were filled with internal solution, pipette resistance was between 1.5–3 MOhm.
# During the depolarizing steps, hERG1 currents are usually small (Figure S1). This is a consequence of the slow activation kinetics (in seconds) and the very fast inactivation kinetics (in milliseconds) of this channel that can be considered an inward rectifier. Therefore, it is a common practice to record the tail currents during the hyperpolarization, where the inactivation is quickly removed and the deactivation occurs slowly. For the dose response curve (Figure 3), tail currents of hERG1 were recorded at −120 mV for 500 ms, after a preconditioning pulse at 60 mV for 500 ms every 5 s. Peak currents recorded in absence and in presence of the toxin were normalized to the maximal peak current in control condition and plotted versus the logarithm of toxin concentration. Data were fitted by a logistic equation. For the voltage dependence of activation study, hERG1 tail currents were recorded during a step at −120 mV for 500 ms, preceded by a 5 s depolarization steps in the range between 30 to −80 mV. To determine the voltage dependence of inactivation, currents were recorded after a depolarization at 40 mV for 1 s, during depolarization steps in the range between 40 to −170 mV. Currents recorded at potentials lower than −90 mV were corrected for deactivation: the deactivation process was fitted by a single exponential extrapolated to the zero point of each step. Data from both activation and inactivation protocols, in absence and in presence of the toxin, were normalized, plotted versus membrane potential, and fitted by a Boltzmann function.
# Currents were acquired by using MultiClamp 700A amplifier and DigiData 1440a (Molecular Devices, San Jose, CA, USA). Off-line analysis and graphs were performed by using Clampfit 10 (Molecular Devices) and Origin 8 (OriginLab, Northampton MA, USA).
# Where it is not otherwise indicated, electrophysiological data represent the mean of 3–6 cells ± standard error (S.E.). […]
substance,measurement,setting,value
Margatoxin,"inhibition of Kv1.3, in words",[1],potent and specific blocker
same,"inhibition of Kv1.3, in words",[1]; listed as Margatoxin 1,potent inhibitor
same,"inhibition of Kv1.1, in words",[2],block also Kv1.1
same,"inhibition of Kv1.2, in words",[3],block also Kv1.1 and Kv 1.2
BeKm-1,state dependence of channel-toxin interaction,[4],toxin binds preferentially to the closed channels while inactivation promotes toxin unbinding
"DRDSCVDKSRCAKYGYFQECTDCCKKYGHNGGTCMFFKCKCA (disulfide 5-23, 11-34, 20-39, 24-41) [CmERG1]",slope of voltage dependence of inactivation in presence of toxin,"[5]; Boltzmann fit, control 28.2 ± 2.2, mean ± SE",29 ± 1.5
same,V1/2 for inactivation in presence of toxin,"[5]; Boltzmann fit, control −77.6 ± 3.6 mV, mean ± SE",−79 ± 1.3 mV
same,"effect on voltage dependence of steady state inactivation, in words",[5]; paired sample t-test at 0.05 level,does not induce significant changes on the voltage dependence of inactivation; also recorded: no modification of the steady state inactivation
same,V1/2 for activation (potential of half activation) in presence of toxin,"[6]; Boltzmann fit, control −37.5 ± 1.4 mV, mean ± SE, n = 4 or n = 5, paired t-test",-34.8 ± 0.8 mV
same,"effect on total current / voltage dependence of activation, in words","[6]; n = 4, paired sample t-test at 0.05 level",reduces the total current with a tendency to modify the potential of half activation
same,slope of dose-response curve (logistic equation),"[7]; CHO cells stably expressing hERG1, 1 nM to 1 µM, tail currents at −120 mV",1.1 ± 0.05
same,IC50,"[7]; CHO cells stably expressing hERG1, tail currents at −120 mV after preconditioning at 60 mV for 500 ms every 5 s, 1 nM to 1 µM, logistic fit, mean ± S.E., n = 3-6 cells per concentration, read-out: IC50, inhibition of hERG1 currents",3.4 ± 0.2 nM
same,onset and reversibility of block,"[7]; CHO-hERG1 patch clamp, application at 1 µM and washout, pulses every 5 s",blocks channels in a fast and reversible manner
same,"block of hERG1 current, in words","[7]; CHO-hERG1 patch clamp, highest concentration 1 µM (n = 3)",completely blocks hERG1 current; also recorded: able to almost completely block the channels; also recorded: full blocking
same,block of hERG1 current,"[7]; CHO-hERG1 patch clamp, maximal block",100%
same,effect on kinetics of the closing (deactivation) process,"[7]; CHO-hERG1 patch clamp, representative currents at 300 nM and 3 nM",does not accelerate the kinetics of the closing process; also recorded: absence of deactivation process acceleration
same,difference in efficiency at a total block of current between CmERG1 and CnERG1,[7]; CmERG1 versus CnERG1,10%
same,"activity on hERG1 channels, in words (venom fraction screening / purified peptide)",[7],active on hERG1
same,"activity on hERG1 channels, in words (venom fraction screening / purified peptide)",[7]; listed as peptide corresponding to 4792.88 Da,confirmed the activity of this peptide against hERG1
